Reference: ChEMBL document CHEMBL5352469, “Solubility-driven optimization of benzothiopyranone salts leading to a preclinical candidate with improved pharmacokinetic properties and activity against Mycobacterium tuberculosis” (Eur J Med Chem, 2023)

Legend:
[1] = AUC (0 to t) in Balb/c mouse at 50 mg/kg, po measured upto 24 hrs by LC/MS/MS analysis; format: ADME, organism-based; parameters: dose 50 mg/kg, time < 24 hrs, route po; settings: in vivo; for AUC(0-t) at 24 h: Balb/c
[2] = Elimination half life in Balb/c mouse at 5 mg/kg, iv measured upto 24 hrs by LC/MS/MS analysis; format: ADME, organism-based; settings: in vivo, read-out: beta t1/2 (converted)
[3] = AUC (0 to infinity) in Sprague-Dawley rat at 5 mg/kg, iv measured upto 24 hrs by LC/MS/MS analysis; format: ADME, organism-based; parameters: time < 24 hrs, dose 5 mg/kg, route iv; settings: in vivo
[4] = Tmax in Sprague-Dawley rat at 50 mg/kg, po measured upto 24 hrs by LC/MS/MS analysis; format: ADME, organism-based; settings: in vivo
[5] = AUC (0 to t) in Sprague-Dawley rat at 5 mg/kg, iv measured upto 24 hrs by LC/MS/MS analysis; format: ADME, organism-based; parameters: time < 24 hrs, dose 5 mg/kg, route iv; settings: in vivo
[6] = Elimination half life in Sprague-Dawley rat at 5 mg/kg, iv measured upto 24 hrs by LC/MS/MS analysis; format: ADME, organism-based; settings: in vivo, read-out: beta t1/2 (converted)
[7] = Elimination half life in Sprague-Dawley rat at 50 mg/kg, po measured upto 24 hrs by LC/MS/MS analysis; format: ADME, organism-based; settings: in vivo, read-out: beta t1/2 (converted)
[8] = Lipophilicity, log D of the compound in octanol/water at pH 2.0 incubated for 72 hrs under shaking condition by shake flask based HPLC-PDA method; format: physicochemical
[9] = AUC (0 to t) in Balb/c mouse at 5 mg/kg, iv measured upto 24 hrs by LC/MS/MS analysis; format: ADME, organism-based; parameters: time < 24 hrs, dose 5 mg/kg, route iv; settings: in vivo; for AUC(0-t) at 24 h: Balb/c
[10] = Lipophilicity, log D of the compound in octanol/water at pH 4.0 incubated for 72 hrs under shaking condition by shake flask based HPLC-PDA method; format: physicochemical
[11] = MRT (0 to infinity) in Sprague-Dawley rat at 50 mg/kg, po measured upto 24 hrs by LC/MS/MS analysis; format: ADME, organism-based; settings: in vivo
[12] = MRT (0 to infinity) in Sprague-Dawley rat at 5 mg/kg, iv measured upto 24 hrs by LC/MS/MS analysis; format: ADME, organism-based; settings: in vivo
[13] = Clearance in Sprague-Dawley rat at 5 mg/kg, iv measured upto 24 hrs by LC/MS/MS analysis; format: ADME, organism-based; settings: in vivo
[14] = Lipophilicity, log D of the compound in octanol/water at pH 7.6 incubated for 72 hrs under shaking condition by shake flask based HPLC-PDA method; format: physicochemical
[15] = Cmax in Balb/c mouse at 5 mg/kg, iv measured upto 24 hrs by LC/MS/MS analysis; format: ADME, organism-based; parameters: dose 5 mg/kg, time < 24 hrs, route iv; settings: in vivo
[16] = Lipophilicity, log P of the compound in octanol/water incubated for 72 hrs under shaking condition by shake flask based HPLC-PDA method; format: physicochemical
[17] = tested on: Mycobacterium tuberculosis; assay: Antibacterial activity against Mycobacterium tuberculosis H37Rv BALB/c mouse model assessed as reduction in delta CFU in lungs at 25 mg/kg via oral gavage for 30 days; format: functional; settings: time 30 day
[18] = AUC (0 to infinity) in Sprague-Dawley rat at 50 mg/kg, po measured upto 24 hrs by LC/MS/MS analysis; format: ADME, organism-based; parameters: time < 24 hrs, dose 50 mg/kg, route po; settings: in vivo
[19] = Chemical stability of the compound under 4500 +/- 500 lx light condition by measuring compound purity incubated for 10 days by HPLC-PDA method relative to initial purity; format: physicochemical; settings: time 10 day; for Stability: 240 h
[20] = AUC (0 to t) in Sprague-Dawley rat at 50 mg/kg, po measured upto 24 hrs by LC/MS/MS analysis; format: ADME, organism-based; parameters: dose 50 mg/kg, time < 24 hrs, route po; settings: in vivo
[21] = Tmax in Balb/c mouse at 50 mg/kg, po measured upto 24 hrs by LC/MS/MS analysis; format: ADME, organism-based; settings: in vivo
[22] = Apparent permeability across basolateral to apical side in human Caco-2 cells incubated for 21 days; format: ADME, cell-based; settings: time 21 day
[23] = Aqueous solubility of compound by HPLC-PDA method; format: physicochemical; settings: buffer; read-out: solubility
[24] = tested on: Mycobacterium tuberculosis; assay: Antibacterial activity against Mycobacterium tuberculosis H37Rv BALB/c mouse model assessed as reduction in CFU in lungs at 12.5 mg/kg via oral gavage for 30 days (reference value: 5.35 +/-0.17); format: functional; settings: time 30 day
[25] = tested on: Mycobacterium tuberculosis; assay: Antibacterial activity against Mycobacterium tuberculosis H37Rv BALB/c mouse model assessed as reduction in CFU in lungs at 25 mg/kg via oral gavage for 30 days (reference value: 5.35 +/-0.17); format: functional; settings: time 30 day
[26] = tested on: Mycobacterium tuberculosis; assay: Antibacterial activity against Mycobacterium tuberculosis H37Rv by microplate alamar blue assay; format: functional
[27] = Cmax in Sprague-Dawley rat at 5 mg/kg, iv measured upto 24 hrs by LC/MS/MS analysis; format: ADME, organism-based; parameters: time < 24 hrs, dose 5 mg/kg, route iv; settings: in vivo
[28] = tested on: Mycobacterium tuberculosis; assay: Antibacterial activity against Mycobacterium tuberculosis H37Rv BALB/c mouse model assessed as reduction in delta CFU in lungs at 12.5 mg/kg via oral gavage for 30 days; format: functional; settings: time 30 day
[29] = Oral bioavailability in Balb/c mouse at 50 mg/kg measured upto 24 hrs by LC/MS/MS analysis; format: ADME, organism-based; settings: in vivo; for bioavailability: Balb/c
[30] = Chemical stability of the compound under 60 degree C high temperature by measuring compound purity incubated for 10 days by HPLC-PDA method analysis relative to initial purity; format: physicochemical; settings: time 10 day; for Stability: 240 h
[31] = Chemical stability of the compound under 92.5% humidity by measuring compound purity incubated for 10 days by HPLC-PDA method relative to initial purity; format: physicochemical; settings: time 10 day; for Stability: 240 h
[32] = Oral bioavailability in Sprague-Dawley rat at 50 mg/kg measured upto 24 hrs by LC/MS/MS analysis; format: ADME, organism-based; settings: in vivo
[33] = Elimination half life in Balb/c mouse at 50 mg/kg, po measured upto 24 hrs by LC/MS/MS analysis; format: ADME, organism-based; settings: in vivo, read-out: beta t1/2 (converted)
[34] = Efflux ratio of apparent permeability across basolateral to apical side over apical to basolateral side in human Caco-2 cells; format: ADME, cell-based
[35] = Cmax in Sprague-Dawley rat at 50 mg/kg, po measured upto 24 hrs by LC/MS/MS analysis; format: ADME, organism-based; parameters: time < 24 hrs, dose 50 mg/kg, route po; settings: in vivo
[36] = Apparent permeability across apical to basolateral side in human Caco-2 cells incubated for 21 days; format: ADME, cell-based; settings: time 21 day
[37] = Cmax in Balb/c mouse at 50 mg/kg, po measured upto 24 hrs by LC/MS/MS analysis; format: ADME, organism-based; parameters: time < 24 hrs, dose 50 mg/kg, route po; settings: in vivo
[38] = Lipophilicity, log D of the compound in octanol/water at pH 6.8 incubated for 72 hrs under shaking condition by shake flask based HPLC-PDA method; format: physicochemical

Row | SMILES | AUC(0-t) at 24 h [1] [ng·h/mL] | half-life [2] [h] | AUC(0-inf) [3] [ng·h/mL] | Tmax [4] [h] | AUC(0-t) at 24 h [5] [ng·h/mL] | half-life [6] [h] | half-life [7] [h] | AUC(0-t) at 24 h [9] [ng·h/mL] | MRT inf [11] [h] | MRT inf [12] [h] | clearance [13] [mL/min/kg] | Cmax [15] [ng/mL] | AUC(0-inf) [18] [ng·h/mL] | AUC(0-t) at 24 h [20] [ng·h/mL] | Tmax [21] [h] | Papp B→A [22] [×10⁻⁶ cm/s] | solubility [23] [µg/mL] | half-life [33] [h] | Papp A→B [36] [×10⁻⁶ cm/s] | Cmax [37] [ng/mL] | further results
1 | O=C(O)/C=C\C(=O)O.O=c1cc(N2CCN(CC3CCCCC3)CC2)sc2c([N+](=O)[O-])cc(C(F)(F)F)cc12 | 7110 | 6.61 | 1740 | 3.33 | 1710 | 6.43 | 4.56 | 2570 | 5.91 | 2.46 | 52.4 | 3090 | 2180 | 2130 | 1.5 | 0.25 | 114 | 5.99 | 3.1 | 776 | logD at 72 h ([8]; pH 2): 1.31; logD at 72 h ([10]; pH 4): 3.6; logD at 72 h ([14]; pH 7.6): > 4.24; logP at 72 h [16]: 2.6; Activity [17]: 3.23 log10CFU; remaining at 240 h ([19]; read-out: Stability): 100%; Activity [24]: 4.6 log10CFU; Activity [25]: 2.12 log10CFU; MIC [26]: < 0.016 µg/mL; Cmax [27]: 3880 ng/mL; Activity [28]: 0.75 log10CFU; bioavailability [29]: 28%; remaining at 240 h ([30]; read-out: Stability): 100%; remaining at 240 h ([31]; read-out: Stability): 100%; bioavailability [32]: 12.5%; efflux ratio [34]: 0.1; Cmax [35]: 282 ng/mL; logD at 72 h ([38]; pH 6.8): > 4.24
2 | O=C(O)C[C@H](O)C(=O)O.O=c1cc(N2CCN(CC3CCCCC3)CC2)sc2c([N+](=O)[O-])cc(C(F)(F)F)cc12 | 7280 | 5.9 |  |  |  |  |  | 2730 |  |  |  | 3950 |  |  | 1 | 0.28 | 158 | 6 | 7.78 | 979 | Stability [19]: 90.6%; bioavailability [29]: 27.7%; Stability [30]: 98.2%; Stability [31]: 98.3%
3 | Cl.O=c1cc(N2CCN(CC3CCCCC3)CC2)sc2c([N+](=O)[O-])cc(C(F)(F)F)cc12 |  | 7.59 | 1940 | 1.67 | 1890 | 7.92 | 5.38 |  | 5.13 | 2.52 | 43.6 | 5990 | 982 | 961 | 0.42 | 0.14 | 28.1 | 6.72 | 0.39 | 502 | AUCt ([1]; 24 h): 2251 ng·h/mL; logD ([8]; pH 2, 72 h): 1.3; AUCt ([9]; 24 h): 6434 ng·h/mL; logD ([10]; pH 4, 72 h): 3.77; logD ([14]; pH 7.6, 72 h): > 4.29; logP ([16]; 72 h): 2.56; Stability [19]: 99.8%; Cmax [27]: 3490 ng/mL; F ([29]; po, 50 mg/kg, 24 h): 14.1%; Stability [30]: 100%; Stability [31]: 100%; bioavailability [32]: 5.07%; efflux ratio [34]: 0.36; Cmax [35]: 163 ng/mL; logD ([38]; pH 6.8, 72 h): > 4.27
